Patent US20240009269A1 (priority 2020, published 2024)
Read-outs that look alike come from different tables or passages of the source.

Key:
dhBMECs in microvessels = assay: Analysis of cell behavior in tissue-engineered microvessels; type: cell-based, human
Excerpt: To monitor cell dynamics, cell loss and proliferation events were counted manually. Rates of cell loss (% h^−1), division (% h^−1), turnover (% h^−1), and cell loss at the site of a focal leak (%) were quantified from phase contrast imaging sequences, as reported previously. Briefly, the total number of endothelial cells was counted manually for each microvessel plane, utilizing a region approximately 100 μm wide corresponding to about a fifth of the channel circumference. Cell loss was identified by observing the removal of a cell from the microvessel. Cell loss from the monolayer occurred through two processes: (1) apoptotic loss, in which a cell constricts, releases its contents into the vessel lumen, which is then removed from the monolayer over a period of 20-60 minutes, and (2) non-apoptotic loss, in which a cell swells and disappears from the monolayer over a period of 2-6 minutes. Cell division was identified by observing cell compression, alignment of chromosomes, and the formation of daughter cells. The rate of turnover (% h^−1) is the difference between the rate of cell division and the rate of cell loss. A cell loss event was identified to be at the site of a focal leak if it occurred within <50 μm and <4 minutes of the occurrence of a focal leak. For a limited set of experiments, the WTC iPSC line [Kreitzer, F. R., et al., Am J Stem Cells, 2013. 2(2): p. 119-31] with GFP-tagged zona occludens-1 (Allen Cell Institute) was used to facilitate live-cell monitoring of tight junction organization.
Confocal z-stacks (0.4 μm in thickness) at 40× magnification were obtained on a swept field confocal microscope system (Prairie Technologies). Illumination was provided by an MLC 400 monolithic laser combiner (Keysight Technologies). Complete reconstruction of the microvessel lumen required approximately four hundred slices. Confocal imaging was conducted before, during, and after exposure to 50 μM·minute melittin treatment.

[1] = tested on: human cortical neurons (HCNs, HCN-2 cells)
mice = details: intraperitoneal administration; cited from earlier work
dhBMECs monolayers = assay: Melittin-induced disruption of dhBMEC monolayers (transwell assay); type: cell-based, human
Experimental: Induced pluripotent stem cell (iPSC)-derived brain microvascular endothelial cells (dhBMECs) mimic the barrier function of the human BBB. DhBMECs were differentiated as previously reported. The BC1 iPSC line derived from a healthy individual was used for all experiments. After eleven days of differentiation, cells were detached using Accutase (A1110501, Thermo Fisher Scientific), and seeded onto transwells, glass slides, or type I collagen microchannels coated overnight with 50 μg mL^−1 human placental collagen IV (Catalog Number (Cat. No.) C5533, Sigma-Aldrich) and 25 μg mL^−1 fibronectin from human plasma (Cat. No. F1141, Sigma-Aldrich). Cells have previously been characterized for expression of tight junction proteins, efflux pumps, and nutrient transporters as well as measurements of barrier function including transendothelial electrical resistance (TEER) or solute permeability. Here, cells with TEER of at least 1500 Ω cm2 were used for all experiments. After detachment, cells were cultured in BBB induction medium: human endothelial cell serum-free medium (HESFM) (Cat. No. 11111044, Thermo Fisher Scientific) supplemented with 1% human platelet poor derived serum (Cat. No. P2918, Sigma-Aldrich), 1% penicillin-streptomycin (Cat. No. 15140122, Thermo Fisher Scientific), 2 ng mL^−1 bFGF (Cat. No. 233FB025CF, Fisher Scientific), and 10 μM all-trans retinoic acid (Cat. No R2625, Sigma-Aldrich). After 24 hours, cells were further cultured in BBB maintenance medium: HESFM supplemented with 1% human platelet poor derived serum and 1% penicillin-streptomycin. Human cortical neuron HCN-2 cells (CRL-10742) were obtained from ATCC (Manassas, VA, USA). HCN-2 cells were cultured in DMEM (Cat. No. 31600091, Thermo Fisher Scientific), adjusted to contain 1.5 g L^−1 sodium bicarbonate, 4.5 g L^−1 D-glucose, and supplemented with 10% heat-inactivated FBS (Cat. No. F4135, Sigma-Aldrich), following ATCC recommendations.
Corning transwell supports (Cat. No. 3470) were coated with 25 μg mL^−1 fibronectin and 50 μg mL^−1 collagen IV overnight at 37° C. DhBMECs were seeded on transwells in BBB induction medium at 10^6 cells cm^−2. […] On day 2, the TEER for monolayers was measured using EVOM-2 and STX-100 electrode (World Precision Instruments, Sarasota, FL), and monolayers with TEER>1500 Ω cm2 were used for the permeability experiment. […] After the permeability experiment, the TEER across monolayers was measured. Dextran fluorescence in the receiving chamber and in the initial apical solution (Co) was measured using the Synergy H4 plate reader (Biotek Instruments Inc., Winooski, VT) and was converted to dextran concentrations using the dextran-fluorescein standard curves. The apparent permeability (Papp) was calculated from Formula 1 below: […]

CC[C@H](C)[C@H](NC(=O)CN)C(=O)NCC(=O)N[C@@H](C)C(=O)N[C@H](C(=O)N[C@@H](CC(C)C)C(=O)N[C@@H](CCCCN)C(=O)N[C@H](C(=O)N[C@@H](CC(C)C)C(=O)N[C@H](C(=O)N[C@H](C(=O)NCC(=O)N[C@@H](CC(C)C)C(=O)N1CCC[C@H]1C(=O)N[C@@H](C)C(=O)N[C@@H](CC(C)C)C(=O)N[C@H](C(=O)N[C@@H](CO)C(=O)N[C@@H](Cc1c[nH]c2ccccc12)C(=O)N[C@H](C(=O)N[C@@H](CCCCN)C(=O)N[C@@H](CCCNC(=N)N)C(=O)N[C@@H](CCCCN)C(=O)N[C@@H](CCCNC(=N)N)C(=O)N[C@@H](CCC(N)=O)C(=O)N[C@@H](CCC(N)=O)C(N)=O)[C@@H](C)CC)[C@@H](C)CC)[C@@H](C)O)[C@@H](C)O)C(C)C)C(C)C [melittin]
cell division rate (dhBMECs in microvessels; across melittin doses 3-100 μM·minute): about 1 % h^−1
cell loss rate following melittin exposure (dhBMECs in microvessels; doses 3-100 μM·minute): dose-dependent
turnover of dhBMECs (division rate minus loss rate) (dhBMECs in microvessels; doses 3-100 μM·minute): negative
cell response, GFP-tagged ZO1 dhBMEC microvessels (dhBMECs in microvessels; high melittin doses (100 μM·min)): cells contracted
time high viability (≥98%) is maintained ([1]; 0.75 μM melittin): ~23 min
time for which viability is largely unaffected ([1]; 5 μM melittin): about 20 minutes
time high viability (≥98%) is maintained ([1]; 5 μM melittin): ~12 min
time at which the viability reached 50% (τ1/2) ([1]; 5 μM melittin, continuous exposure): ~30 min
time high viability (≥98%) is maintained ([1]; 10 μM melittin): ~12 min
decrease of viability ([1]; dose of 100 μM·minute): < 2%
LD50 (mice): 3.2 mg/kg
concentrations for membrane activity (dhBMECs monolayers): 1 to 10 µM
500 kDa dextran permeability across dhBMECs (dhBMECs monolayers; 5 μM melittin for 90 minutes, transwell): increased
concentration above which disruption is induced in confluent monolayers (dhBMECs monolayers; confluent dhBMEC monolayers): above 1 μM
cell morphology (phase contrast) (dhBMECs monolayers; dhBMECs on glass slides, 5 μM melittin for 90 minutes): cell swelling and detachment
